Our source for the MIC and ED50 values is patent US5086049A, “7[4-(5 methyl-2-oxo-1,3-dioxalen-4-yl)methyl 1-piperzinyl]-4-oxo-4H-[1,3]thiazeto[3,2-a]quinoline-3-carboxylic acids” (Nipponshinyaku Co., Ltd., priority 1987, dated 1992).

Test [1] deals with Bacillus subtilis ATCC 6633. Description: MIC by agar plate dilution method. The class given is cell-based. The conditions noted are these: ATCC6633, 10^6 CFU/ml, 37° C., 18 hours. As for the experimental part: (§1) Test Method: In accordance with a standard method by Japan Chemotherapeutic Society [Chemotherapy, 29(1), pages 76-79, 1981], agar plate dilution method was used and the MIC was measured. Thus, bouillon for measuring sensitivity was used and the bacterial liquid cultured at 37° C. for 18 hours was diluted to an extent of 10^6 CFU/ml using said medium. This was inoculated to an agar medium containing drug for measuring sensitivity using a microplanter, cultured at 37° C. for 18 hours, and MIC was measured. Ofloxacin was used for comparison/control.
(§2) The compound of Example 2 was used as representative of the compounds of the present invention and ofloxacin was used as the Comparison/Control.

The test system of test [2] is Escherichia coli N1JH JC-2. The test is described as follows: MIC by agar plate dilution method. The class given is cell-based. As to the method:
as §1, §2

Test [3] relates to Klebsiella pneumoniae NCTC 9632. The test is described as follows: MIC by agar plate dilution method. In kind it is cell-based. As to the method: as §1, §2
The test system of test [4] is Proteus mirabilis IFO 3849. The test is described as follows: MIC by agar plate dilution method. In kind it is cell-based. Particulars: IFO3849, 10^6 CFU/ml, 37° C., 18 hours. As to the method: as §1, §2
For test [5], the system named is Pseudomonas aeruginosa IFO 3445. The test is described as follows: MIC by agar plate dilution method. In kind it is cell-based. The conditions noted are these: IFO3445, 10^6 CFU/ml, 37° C., 18 hours. As for the experimental part:
as §1, §2

Test [6] concerns Serratia marcescens IFO 3736. The test is described as follows: MIC by agar plate dilution method. The class given is cell-based. The conditions noted are these: IFO3736, 10^6 CFU/ml, 37° C., 18 hours. As to the method: as §1, §2
Test [7] relates to Shigella flexneri 2a EW-10. Description: MIC by agar plate dilution method. In kind it is cell-based. Particulars: 2AEW10, 10^6 CFU/ml, 37° C., 18 hours. As to the method:
as §1, §2

For test [8], the system named is Staphylococcus aureus 209-P JC-1. Description: MIC by agar plate dilution method. The class given is cell-based. Particulars: 10^6 CFU/ml, 37° C., 18 hours. As to the method: as §1, §2
For test [9], the system named is Streptococcus pneumoniae Type I. Description: MIC by agar plate dilution method. The class given is cell-based. The conditions noted are these: 10^6 CFU/ml, 37° C., 18 hours. As to the method:
as §1, §2

For test [10], the system named is Streptococcus pyogenes S-23. Description: MIC by agar plate dilution method. The class given is cell-based. The conditions noted are these: S23, 10^6 CFU/ml, 37° C., 18 hours. As to the method: as §1, §2
Test [11] concerns E. coli KC-14. Description: Therapeutic effect on infection in mice, E. coli. The class given is in vivo, ddY strain male mice. Particulars: E. coli KC-14, 5.1×10^4 CFU/mouse i.p.; drug orally once 2 hours after inoculation; survival after one week, Probit method. As to the method: (§3) Test method: E. coli KC-14 and P. aeruginosa E-2 were suspended in 5% mucin and 0.5 ml of the suspension was injected intraperitoneally to ddY strain male mice (body weight: ca. 20 g; four weeks age; 10 mice per group). The amount of the bacteria inoculated was 5.1×10^4 CFU/mouse for E. coli and 7.5×10^4 CFU/mouse for P. aeruginosa. The drug was given orally once after 2 hours of inoculation and, out of the survival rate after one week, an ED50 was calculated by a Probit method. Ofloxacin was used as the comparison/control.

Test [12] deals with P. aeruginosa E-2. Description: Therapeutic effect on infection in mice, P. aeruginosa. The class given is in vivo, ddY strain male mice. The conditions noted are these: P. aeruginosa E-2, 7.5×10^4 CFU/mouse i.p.; drug orally once 2 hours after inoculation; survival after one week, Probit method. As for the experimental part: as §3

Each structure is given as a SMILES string. Values after ≈ are worked out from the molar mass of the structure shown. Where two headings read alike, the source gives them in different places.

With `CC1COc2c(N3CCN(C)CC3)c(F)cc3c(=O)c(C(=O)O)cn1c23` (racemic) [Ofloxacin, reference compound], the minimum inhibitory concentration (MIC) in test [1] is 0.1 µg/mL (≈ 0.277 µM); in [2] (N1JHJC2, Escherichia coli N1JH JC-2, 10^6 CFU/ml, 37° C., 18 hours, read-out: MIC), 0.1 µg/mL (≈ 0.277 µM); in test [3] (NCTC9632, Klebsiella pneumoniae NCTC 9632, 10^6 CFU/ml, 37° C., 18 hours, read-out: MIC), 0.05 µg/mL (≈ 0.138 µM); in test [4], 0.39 µg/mL (≈ 1.08 µM); in [5], 1.56 µg/mL (≈ 4.32 µM); in [6], 0.78 µg/mL (≈ 2.16 µM). The minimal inhibitory concentration (MIC) was found to be 0.025 µg/mL (≈ 0.0692 µM) in test [7], 0.39 µg/mL (≈ 1.08 µM) in [8], 1.56 µg/mL (≈ 4.32 µM) in test [9] and 1.56 µg/mL (≈ 4.32 µM) in test [10]. Besides, the ED50 was 0.011 mg/mouse in test [11] and 0.692 mg/mouse in test [12].
As to `CCOC(=O)c1c2n(c3cc(N4CCN(Cc5oc(=O)oc5C)CC4)c(F)cc3c1=O)C(C)S2` (stereo not drawn) [Example 1, Ethyl 6-fluoro-1-methyl-7-[4-(5-methyl-2-oxo-1,3-dioxolen-4yl)methyl-1-piperazinyl]-4oxo-4H-[1,3-]thiazeto[3,2-a]quinoline-3-carboxylate], in test [12], the ED50 is reported as 0.354 mg/mouse.
On to `Cc1oc(=O)oc1CN1CCN(c2cc3c(cc2F)c(=O)c(C(=O)O)c2n3C(C)S2)CC1` (stereo not drawn) [Example 2], for which the MIC in test [1] amounted to 0.05 µg/mL (≈ 0.108 µM); in [2] (Escherichia coli, N1JHJC2, 18 h), 0.0125 µg/mL (≈ 0.0271 µM); in test [3] (Klebsiella pneumoniae, NCTC9632, 18 h), 0.0125 µg/mL (≈ 0.0271 µM); in [4] it was 0.025 µg/mL (≈ 0.0542 µM); in test [5] it was 0.2 µg/mL (≈ 0.433 µM); in test [6], 0.2 µg/mL (≈ 0.433 µM). Moreover, the MIC came to 0.0125 µg/mL (≈ 0.0271 µM) in test [7], 0.1 µg/mL (≈ 0.217 µM) in [8], 0.39 µg/mL (≈ 0.845 µM) in test [9] and 0.39 µg/mL (≈ 0.845 µM) in test [10]. Besides, the ED50 is listed as 0.0078 mg/mouse in [11] and 0.154 mg/mouse in test [12].
For the compound `Cc1oc(=O)oc1CN1CCN(c2cc3c(cc2F)c(=O)c(C(=O)O)c2n3C(C)S2)CC1.Cl` (stereo not drawn) [Example 3, 6-Fluoro-1-methyl-7-[4-(5-methyl-2-oxo-1,3-dioxolen-4-yl)methyl-1-piperazinyl]-4-oxo-4H-[1,3]thiazeto[3,2-a]quinoline-3-carboxylic acid hydrochloride], the figures for the ED50 in test [11] and in test [12] were 0.0078 mg/mouse and 0.125 mg/mouse, respectively.
In the same order, the values of `CS(=O)(=O)O.Cc1oc(=O)oc1CN1CCN(c2cc3c(cc2F)c(=O)c(C(=O)O)c2n3C(C)S2)CC1` (stereo not drawn) [Example 4, 6-Fluoro-1-methyl-7-[4-(5-methyl-2-oxo-1,3-dioxolen-4-yl)methyl-1-piperazinyl]-4-oxo-4H-[1,3]thiazeto[3,2-a]quinoline-3-carboxylic acid methanesulfonate] are 0.0078 mg/mouse and 0.125 mg/mouse.
For `Cc1oc(=O)oc1CN1CCN(c2c(F)cc3c(=O)c(C(=O)O)c4n(c3c2F)C(C)S4)CC1` (stereo not drawn) [Example 8, 6,8-Difluoro-1-methyl-7-[4-(5-methyl-2-oxo-1,3-dioxolen-4-yl)methyl-1-piperazinyl]-4-oxo-4-[1,3]-thiazeto[3,2-a]quinoline-3-carboxylic acid], the results for the ED50 in [11] and in [12] were 0.0078 mg/mouse and 0.125 mg/mouse, respectively.
The matching figures for `COc1c(N2CCN(Cc3oc(=O)oc3C)CC2)c(F)cc2c(=O)c(C(=O)O)c3n(c12)C(C)S3` (stereo not drawn) [Example 14, 6-Fluoro-8-methoxy-1-methyl-7-[4-(5-methyl-2-oxo-1,3-dioxolen-4-yl)methyl-1-piperazinyl]-4-oxo-4H-[1,3]-thiazeto[3,2-a]quinoline-3-carboxylic acid]: 0.0152 mg/mouse and 0.427 mg/mouse.
